Measurements from EP4652842A1, “BIOPESTICIDE COMPOSITION, PROCEDURE OF OBTAIN THEREOF, AND METHOD FOR CONTROLLING AND TREATING BROAD SPECTRUM OF PESTS, DISEASES AND WEEDS IN PLANTS” (priority 2024, dated 2025).
Where two headings read alike, the source gives them in different places.

What was measured:
Assay type in all cases: in vivo
Tetranychus urticae [1] = assay: Antifeedant effects: settling inhibition and oviposition inhibition; settings: T. urticae
Protocol: The concept of antifeedant as a substance that acts on insect behaviour involves feeding reduction (FR), settling inhibition (SI) and oviposition Inhibition (IO). In some cases, settling inhibition is considered as indirect repellent effect. […] It is based on the preference of target adults for treated and non-treated host plants located in the same entomological cages (in plant assays). The experiments were conducted in bugdorm®-type net cages (Figure 13). Four similar host plants (two leaf stage) were transferred to a same pot (Figure 14). Two of the plants were sprayed with biopesticide compositions and the others with the control and dried for 30 minutes. Target adults were released at the site that was equidistant from the two plants. A total of 5 cages for each treatment (four plants each) and control were used in each experiment and replicated 3 times in different days. […] After 24 hours, the number of settled adults in treated and non-treated plants and the number of laid eggs were recorded on the upper and underside of each leaf. Number of adults and eggs were counted under a stereomicroscope. […] T= Settling of treated plants; C= Setting of control plants. […] Means of %Sl and %IO were analysed for significance by the non-parametric Wilcoxon signed-rank test (p < 0.05).

Tuta absoluta [2] = assay: Antifeedant effects: feeding reduction
Bemisia tabaci [3] = tested on: Bemisia tabaci
Protocol: (§1) The objective of this bioassay is to evaluate the effect of test items on the mortality of adult insects and mites in a short/medium-term (0-24 hours) by topical application. Tests were conducted in plastic net bottles. A total of 10 replicates for each treatment (tests items and negative control) were used in each experiment and temporarily replicated 3 times along the week. (Figure 12)
(§2) Numbers of live and dead adult insects and mites were counted at 24 h post-treatment. Adult insects and mites were considered dead if no movement was apparent after probing with the tip of a fine brush under stereoscopic magnifying glass. Mortality percentage was calculated in treatment and control groups. If the mortality in negative control is above 20% the test was discarded.
(§3) Means of %M were compared using a one-way analysis of variance (ANOVA, p<0.05) and LSD-test as a post hoc test to verify significant differences between single treatments using Statgraphics Centurion XVII software. When nonnormality in the data was detected, an additional Kruskal-Wallis test was conducted, and Box-and-Whisker Plot (Median Notch) was presented.
(§4) The different compositions were tested by trials that were carried out on different relevant insect pests and acari including: Tuta absoluta, Bemisia tabaci, Myzus persicae, Frankliniella occidentalis and Tetranychus urticae. The bioassay type used was contact mortality (Leaf Disc Method) described in the example 4.
(§5) The main treatments included in the comparison of efficacy are: Group A: Individual solvents: Benzyl alcohol, ethanol, isopropanol, and water were applied directly (purity as in the label) diluted at 0.3% (3cc/L) in water without formulation. Group B: Vegetable matrix extracts were extracted with different solvents such as benzyl alcohol, ethanol, isopropanol, and water.

Myzus persicae [4] = tested on: Myzus persicae
Protocol: as §1, §2, §3, §4, §5

Tetranychus urticae [5] = tested on: Tetranychus urticae
Protocol: as §1, §2, §3, §4, §5

Tuta absoluta [6] = tested on: Tuta absoluta
Protocol: as §1, §2, §3, §4, §5

[7] = tested on: Frankliniella occidentalis
Protocol: as §1, §2, §3, §4, §5

[8] = tested on: Frankliniella occidentalis; assay: Antifeedant effects: feeding reduction; settings: F. occidentalis
Bemisia tabaci [9] = assay: Antifeedant effects: settling inhibition
Protocol: (§6) The concept of antifeedant as a substance that acts on insect behaviour involves feeding reduction (FR), settling inhibition (SI) and oviposition Inhibition (IO). In some cases, settling inhibition is considered as indirect repellent effect. […] It is based on the preference of target adults for treated and non-treated host plants located in the same entomological cages (in plant assays). The experiments were conducted in bugdorm®-type net cages (Figure 13). Four similar host plants (two leaf stage) were transferred to a same pot (Figure 14). Two of the plants were sprayed with biopesticide compositions and the others with the control and dried for 30 minutes. Target adults were released at the site that was equidistant from the two plants. A total of 5 cages for each treatment (four plants each) and control were used in each experiment and replicated 3 times in different days. […] After 24 hours, the number of settled adults in treated and non-treated plants and the number of laid eggs were recorded on the upper and underside of each leaf. Number of adults and eggs were counted under a stereomicroscope. […] T= Settling of treated plants; C= Setting of control plants. Means of %Sl and %IO were analysed for significance by the non-parametric Wilcoxon signed-rank test (p < 0.05).

Myzus persicae [10] = assay: Antifeedant effects: settling inhibition
Protocol: as §6

[11] = %SI settling inhibition index, at sublethal concentration 0.021 %
[12] = antifeedant/repellent, concentration under the lethal EC50
[13] = %FR feeding reduction index, at sublethal concentration 0.014 %

Compound: COC(=O)C=Cc1ccccc1 [Methyl cinnamate]
- %SI/ %FR (Tetranychus urticae [1]; [11]): 20.0 ± 4.6%
- Sublethal concentration (%) (Tetranychus urticae [1]; [12]): 0.021%
- %SI/ %FR (Tuta absoluta [2]; [13]): 30.4 ± 5.7%
- Sublethal concentration (%) (Tuta absoluta [2]; [12]): 0.014%
- %M (Bemisia tabaci [3]; Bemisia tabaci, at sublethal concentration 0.014 %, Abbott's corrected): 14.5 ± 9.8%
- Sublethal concentration (%) (Bemisia tabaci [3]; Bemisia tabaci, contact mortality, concentration under the lethal EC50): 0.014%
- %M (Myzus persicae [4]; Myzus persicae, at sublethal concentration 0.014 %, Abbott's corrected): 17.1 ± 4.7%
- Sublethal concentration (%) (Myzus persicae [4]; Myzus persicae, contact mortality, concentration under the lethal EC50): 0.014%
- %M (Tetranychus urticae [5]; Tetranychus urticae, at sublethal concentration 0.021 %, Abbott's corrected): 24.7 ± 6.9%
- Sublethal concentration (%) (Tetranychus urticae [5]; Tetranychus urticae, contact mortality, concentration under the lethal EC50): 0.021%
- %M (Tuta absoluta [6]; Tuta absoluta, at sublethal concentration 0.021 %, Abbott's corrected): 17.5 ± 5.9%
- Sublethal concentration (%) (Tuta absoluta [6]; Tuta absoluta, contact mortality, concentration under the lethal EC50): 0.021%
- %M ([7]; Frankliniella occidentalis, at sublethal concentration 0.021 %, Abbott's corrected): 25.6 ± 4.6%
- Sublethal concentration (%) ([7]; Frankliniella occidentalis, contact mortality, concentration under the lethal EC50): 0.021%
- %SI/ %FR [8, 13]: 22.2 ± 2.1%
- Sublethal concentration (%) [8, 12]: 0.014%
- %SI/ %FR (Bemisia tabaci [9]; [11]): 14.4 ± 3.6%
- Sublethal concentration (%) (Bemisia tabaci [9]; [12]): 0.021%
- %SI/ %FR (Myzus persicae [10]; %SI settling inhibition index, at sublethal concentration 0.014 %): 17.9 ± 6.7%
- Sublethal concentration (%) (Myzus persicae [10]; [12]): 0.014%

Compound: CC(C)=CCCC(C)=CC=O [Citral]
- %M (Bemisia tabaci [3]; in vivo): 20.7 ±7.3%
- %M (Myzus persicae [4]; in vivo): 30.2 ±5.8%
- %M (Tetranychus urticae [5]; in vivo): 16.9 ± 3.9%
- %M (Tuta absoluta [6]; in vivo): 0.0 ±0.0%
- %M ([7]; in vivo): 27.8 ± 3.6%
